From patent publication US10548911B2, “Small molecule anti-scarring agents” (UNIVERSITY OF ROCHESTER, priority 2014, dated 2020)
“Also recorded” adds a separate entry of the source.

How the values were obtained:
[1] = test system: primary human orbital fibroblasts; assay: TGFβ-induced myofibroblast formation, αSMA Western blot, primary human orbital fibroblasts; conditions: HCPT 50 nM to 500 nM, TGFβ
Experimental: Total protein was isolated from 0.5-2×10^6 cells and lysed in 60 mM Tris, pH 6.8, 2% SDS containing 1× protease inhibitor cocktail (Sigma, St. Louis, Mo.). The lysates were passed through a 26 gauge needle 5-6 times to shear genomic DNA. Protein concentrations were determined using the detergent compatible protein assay (BioRad). Total protein (1-10 ug per lane) was subjected to SDS-PAGE. Protein gels were transferred to PVDF membrane (Millipore) and probed with antibodies as specified. Western blot band intensities were quantified using ImageLab software (BioRad). Protein expression was normalized to β-tubulin levels.
Primary human orbital fibroblasts, primary human lung fibroblasts, and primary mouse lung fibroblasts were treated with TGFβ and HCPT (50 nM, 500 nM, and 5000 nM) or SNC (500 nM) or AXD (0.5 μM, 5 μM, and 50 μM) to assess the ability of HCPT to inhibit myofibroblast formation. […] Western blots were performed using cell lysates from the fibroblasts exposed to TGFβ to assess TGFβ-dependent αSMA expression.
Primary human orbital fibroblasts were treated with TGFβ and either 6-formylindolo(3,2-b)carbazole (“FICZ”, 1 μM), Omeprazole (“Ome”, 2 μM, 10 μM, 50 μM, 100 μM, 250 μM, 500 μM), or Flutamide (“Flut”, 2 μM, 10 μM, 50 μM, 100 μM, 250 μM, 500 μM) to assess their ability to inhibit myofibroblast formation. […] Western blots were performed using cell lysates from the fibroblasts exposed to TGFβ to assess TGFβ-dependent αSMA expression. Densitometry analyses of the Western blots were also performed.

[2] = test system: primary mouse lung fibroblasts; assay: TGFβ-induced myofibroblast formation, αSMA Western blot, primary mouse lung fibroblasts; type: cell-based; conditions: HCPT 50 nM to 500 nM
Experimental: Salinomycin and alexidine served as positive controls for anti-fibrotic activity. Western blots were performed using cell lysates from the fibroblasts exposed to TGFβ to assess TGFβ-dependent αSMA expression.

[3] = test system: primary human lung fibroblasts; assay: TGFβ-induced myofibroblast formation, αSMA Western blot and cell images, primary human lung fibroblasts; type: cell-based
Experimental: Human lung fibroblasts were treated with various concentrations of 10-hydroxycamptothecin (HCPT) (50 nM or 500 nM) and induced to form scar-forming myofibroblasts by treating with TGFβ.

[4] = test system: TGFβ-induced myofibroblast formation in human fibroblasts; assay: Western blot of myofibroblast markers αSMA and calponin in TGFβ-treated human (TED orbital) fibroblasts; type: cell-based; conditions: 250 nM, TGFβ, 72 hours
Experimental: TED fibroblasts were treated with TGFβ (1 ng/ml) in the presence or absence of 10-250 nM salinomycin for 72 hours to allow formation of myofibroblasts. After 72 hours, cells were harvested and analyzed by Western blot. As expected, the fibroblasts robustly responded to TGFβ, expressing high levels of αSMA and calponin (FIG. 2A). […] At 50 nM salinomycin, expression of αSMA was reduced by 4-fold over TGFβ treatment alone. Furthermore, at 250 nM salinomycin, αSMA expression was reduced by approximately 16-fold, to levels at or below untreated fibroblasts. […] Another key role of myofibroblasts in scar formation is the production of collagen. Whether salinomycin could block myofibroblast collagen production was assessed. Cells were treated with TGFβ and salinomycin as above and after 72 hours, culture medium was collected and analyzed for collagen levels using a specific collagen I antibody and slot blot analysis.
To test these four compounds, human fibroblasts were treated with TGFβ in the absence or presence of 250 nM of either salinomycin, narasin, clioquinol or monensin for 72 hours. After treatment, cell lysates were harvested and analyzed for the presence of the myofibroblast markers, αSMA and calponin (FIG. 3B).

human fibroblasts = assay: BrdU incorporation assay (cell proliferation); type: cell-based
Experimental: Human fibroblasts were seeded on a 96-well plate at a density of 1×10^5 cells/well. Cells were treated in triplicate. Cell proliferation was determined using the bromodeoxyuridine (BrdU) assay following manufacturer's instructions. Briefly, cells were treated with a BrdU label at a 1:2000 dilution for 24 h after the initial 72 h treatment with TGFβ+/−drugs. BrdU incorporation was measured using the BrdU Cell Proliferation Assay kit (Calbiochem, San Diego, Calif.) at 450-540 nm using a Varioskan microplate reader.
While salinomycin and other polyether ionophores blocked myofibroblast formation, it was next assessed whether these effects were a result of toxicity and/or due to a block of cell proliferation. Though the treatment doses are relatively low (efficacy in 100-250 nM range), a loss of cell viability could still be a possibility. To test this, human fibroblasts were treated with vehicle (DMSO), 50-250 nM salinomycin alone, TGFβ or TGFβ plus 250 nM salinomycin. As a positive control, fibroblasts were treated with the cytotoxic drug, puromycin. Treated cells were cultured in the presence of alamar blue reagent, which measures mitochondrial oxidation-reduction (REDOX) potential and serves as a quantitative viability sensor. After 72 hours of culture, alamar blue fluorescence was measured to assay cell viability (FIG. 4A). […] It was also tested whether salinomycin affects basal fibroblast proliferation. To address this, cells were treated with vehicle or 250 nm of either salinomycin or narasin for 24 hours in the presence of bromodeoxyuridine (BrdU) to measure cell proliferation ([…], first three bars). […] BrdU was also added to cells treated with TGFβ in the presence or absence of 250 nM salinomycin or narasin (FIG. 4B, last three bars). As expected, TGFβ induced human fibroblast proliferation. Remarkably, both salinomycin and narasin were able to beneficially block TGFβ induced proliferation by 4 to 5 fold, without affecting basal proliferation levels.

## CC[C@@]1(O)C(=O)OCc2c1cc1n(c2=O)Cc2cc3cc(O)ccc3nc2-1 [HCPT, 10-hydroxycamptothecin]
[1]
  myofibroblast formation (relative αSMA expression): potently blocks myofibroblast formation; also recorded: dose-dependent inhibition of αSMA
[2]
  myofibroblast formation (relative αSMA expression): less effective in blocking myofibroblast formation; also recorded: potently blocks myofibroblast formation
[3]; HCPT 50 nM or 500 nM
  overt toxicity (cell images): without being overtly toxic; also recorded: with out being overtly toxic
[3]; HCPT 50 nM or 500 nM, TGFβ
  formation of myofibroblasts (cell images): not in samples treated with HCPT or SNC; also recorded: not in samples with HCPT or salinomycin (SNC)
[3]; HCPT 50 nM to 500 nM, TGFβ
  myofibroblast formation (relative αSMA expression): potently blocks myofibroblast formation; also recorded: dose-dependent inhibition of αSMA

## CC[C@@H](C(=O)O)[C@@H]1O[C@@H]([C@@H](C)[C@H](O)[C@H](C)C(=O)[C@H](CC)[C@H]2O[C@]3(C=C[C@@H](O)[C@]4(CC[C@@](C)([C@H]5CC[C@](O)(CC)[C@H](C)O5)O4)O3)[C@H](C)C[C@@H]2C)[C@@H](C)C[C@@H]1C [narasin]
[4]
  expression of αSMA and calponin: inhibited expression of αSMA and calponin
Human fibroblasts; 250 nM plus TGFβ
  TGFβ induced proliferation (BrdU incorporation): significantly blocked TGFβ induced proliferation
Human fibroblasts; 250 nM, without TGFβ
  basal fibroblast proliferation (BrdU incorporation): did not affect basal fibroblast proliferation; also recorded: Neither salinomycin nor narasin blocked basal fibroblast proliferation
